In the assay the target is T1, HIV-integrase (Human immunodeficiency virus type 1 group M subtype B, UniProt P12497).
T1 construct: Recombinant integrase (0.26 ng) was incubated with the beads
The assay is described as follows: HIV-Integrase Inhibition Activity (SPA bead integration assay with P33 labeled target DNA). In kind it is biochemical. Particulars: recombinant integrase, class symbols; read-out: in vitro activity. In outline:
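Strand integration read as bead-proximity CPM after P33 target DNA (0.1 fmol) and inhibitor were added to washed integrase–substrate DNA complexes on SPA beads. Enzyme bound 90 min at 37° C; EDTA (10 mM final) terminated reaction; IC50 graded A/B/C.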
For the compound `Cc1cnnn1-c1cc(F)ccc1CNC(=O)c1nc2n(c(=O)c1O)CC1CCC2(NC(=O)C(=O)N(C)C)CC1` [Example 106, N′-(2-((4-Fluoro-2-(5-methyl-1H-1,2,3-triazol-1-yl)benzyl)carbamoyl)-3-hydroxy-4-oxo-6,7,8,9-tetrahydro-7,10-ethanopyrimido[1,2-a]azepin-10(4H)-yl)-N,N-dimethylethanediamide], the IC50 fell in the range of 10 to 100 nM. Take `CN(C)C12CCC(CC1)Cn1c2nc(C(=O)NCc2ccc(F)cc2)c(O)c1=O` [Example 150, 10-(Dimethylamino)-N-(4-fluorobenzyl)-3-hydroxy-4-oxo-4,6,7,8,9,10-hexahydro-7,10-ethanopyrimido[1,2-a]azepine-2-carboxamide]: the IC50 is more than 100 nM. Next, `COCCN(C)C(=O)C(=O)N(C)C12CCC(CC1)Cn1c2nc(C(=O)NCc2ccc(F)c(C)c2)c(O)c1=O` [Example 168, N-(2-((4-Fluoro-3-methylbenzyl)carbamoyl)-3-hydroxy-4-oxo-6,7,8,9-tetrahydro-7,10-ethanopyrimido[1,2-a]azepin-10(4H)-yl)-N′-(2-methoxyethyl)-N,N′-dimethylethanediamide]: less than 10 nM; `CN(C)C(=O)C(=O)NC12CCC(CC1)Cn1c2nc(C(=O)NCc2ccccc2C(F)(F)F)c(O)c1=O` [Example 377]: 10 to 100 nM; `CN(C)C(=O)C(=O)NC12CCC(CCn3c1nc(C(=O)NCc1ccc(F)cc1)c(O)c3=O)C2` (stereo not shown) [Example 199, Ethanediamide, N′-[2-[[[(4-fluorophenyl)methyl]amino]carbonyl]-7,8,9,10-tetrahydro-3-hydroxy-4-oxo-8,11-methano-4H-pyrimido[1,2-a]azocin-11(6H)-yl]-N,N-dimethyl-]: less than 10 nM.

As to `CN(C)C(=O)C(=O)NC12CCC(CC1)Cn1c2nc(C(=O)NCC(c2ccccc2)c2ccccc2)c(O)c1=O` [Example 340], the IC50 was more than 100 nM. In the case of `Cc1nnc(C(=O)NC23CCC(CC2)Cn2c3nc(C(=O)NCc3ccc(F)cc3)c(O)c2=O)o1` [Example 53, N-(4-Fluorobenzyl)-3-hydroxy-10-(((5-methyl-1,3,4-oxadiazol-2-yl)carbonyl)amino)-4-oxo-4,6,7,8,9,10-hexahydro-7,11-ethanopyrimido[1,2-a]azepine-2-carboxamide], the IC50 was less than 10 nM. Next, `C[C@@H]1CN(C(=O)C(=O)NC23CCC(CC2)Cn2c3nc(C(=O)NCc3ccc(F)cc3)c(O)c2=O)C[C@H](C)O1` [Example 64, 10-((((2R,6S)-2,6-Dimethyl-4-morpholinyl)(oxo)acetyl)amino)-N-(4-fluorobenzyl)-3-hydroxy-4-oxo-4,6,7,8,9,10-hexahydro-7,10-ethanopyrimido[1,2-a]azepine-2-carboxamide]: less than 10 nM; `Cc1nn(C)cc1CN(C)C(=O)C(=O)NC12CCC(CC1)Cn1c2nc(C(=O)NCc2ccc(F)cc2)c(O)c1=O` [Example 96, N-((1,3-Dimethyl-1H-pyrazol-4-yl)methyl)-N′-(2-((4-fluorobenzyl)carbamoyl)-3-hydroxy-4-oxo-6,7,8,9-tetrahydro-7,10-ethanopyrimido[1,2-a]azepin-10(4H)-yl)-N-methylethanediamide]: less than 10 nM; `Cc1ncnn1-c1cc(F)ccc1CNC(=O)c1nc2n(c(=O)c1O)CC1CCC2(NC(=O)C(=O)N(C)C)CC1` [Example 108, N′-(2-((4-Fluoro-2-(5-methyl-1H-1,2,4-triazol-1-yl)benzyl)carbamoyl)-3-hydroxy-4-oxo-6,7,8,9-tetrahydro-7,10-ethanopyrimido[1,2-a]azepin-10(4H)-yl)-N,N-dimethylethanediamide]: 10 to 100 nM. Regarding `CN(CCO)C(=O)C(=O)NC12CCC(CC1)Cn1c2nc(C(=O)NCc2ccc(F)cc2)c(O)c1=O` [Example 81, N′-(2-((4-Fluorobenzyl)carbamoyl)-3-hydroxy-4-oxo-6,7,8,9-tetrahydro-7,10-ethanopyrimido[1,2-a]azepin-10(4H)-yl)-N-(2-hydroxyethyl)-N-methylethanediamide], the IC50 is less than 10 nM. To `O=C(NC12COC(CCn3c1nc(C(=O)NCc1ccc(F)cc1)c(O)c3=O)C2)OCc1ccccc1` (stereo not shown) [Example 217, Benzyl (2-((4-fluorobenzyl)carbamoyl)-3-hydroxy-4-oxo-7,8-dihydro-4 H,6H-8,11-methanopyrimido[2,1-d][1,5]oxazocin-11(10H)-yl)carbamate] belongs less than 10 nM; to `CS(=O)(=O)N1CCN(C(=O)NC23CCC(CC2)Cn2c3nc(C(=O)NCc3ccc(F)cc3)c(O)c2=O)C1=O` [Example 23, N-(4-Fluorobenzyl)-3-hydroxy-10-(((3-(methylsulfonyl)-2-oxo-1-imidazolidinyl)carbonyl)amino)-4-oxo-4,6,7,8,9,10-hexahydro-7,10-ethanopyrimido[1,2-a]azepine-2-carboxamide], less than 10 nM; to `CC(NC(=O)c1nc2n(c(=O)c1O)CC1CCC2(NC(=O)C(=O)N(C)C)CC1)c1ccccc1` (stereo not shown) [Example 366], less than 10 nM.

In the case of `CC(=O)N1CC(F)(F)C[C@H]1C(=O)NC12CCC(CC1)Cn1c2nc(C(=O)NCc2ccc(F)c(C)c2)c(O)c1=O` [Example 289, 7,10-Ethanopyrimido[1,2-a]azepine-2-carboxamide, 10-[[[(2S)-1-acetyl-4,4-difluoro-2-pyrrolidinyl]carbonyl]amino]-N-[(4-fluoro-3-methylphenyl)methyl]-4,6,7,8,9,10-hexahydro-3-hydroxy-4-oxo-], the IC50 was less than 10 nM.

For the compound `CN(C)C(=O)C(=O)NC12CCC(CC1)Cn1c2nc(C(=O)NCc2ccc(F)c(C#N)c2)c(O)c1=O` [Example 132, N′-(2-((3-Cyano-4-fluorobenzyl)carbamoyl)-3-hydroxy-4-oxo-6,7,8,9-tetrahydro-7,10-ethanopyrimido[1,2-a]azepin-10(4H)-yl)-N,N-dimethylethanediamide], the IC50 is less than 10 nM. On to `Cc1cc(CNC(=O)c2nc3n(c(=O)c2O)CC2CCC3(NC(=O)[C@H]3CCN(S(C)(=O)=O)C3)CC2)ccc1F` [Example 283, 7,10-Ethanopyrimido[1,2-a]azepine-2-carboxamide, N-[(4-fluoro-3-methylphenyl)methyl]-4,6,7,8,9,10-hexahydro-3-hydroxy-10-[[[(3S)-1-(methylsulfonyl)-3-pyrrolidinyl]carbonyl]amino]-4-oxo-], for which the IC50 is less than 10 nM. Consider `COc1cc(CNC(=O)c2nc3n(c(=O)c2O)CC2CCC3(NC(=O)C(=O)N(C)C)CC2)ccc1F` [Example 133, N′-(2-((4-Fluoro-3-methoxybenzyl)carbamoyl)-3-hydroxy-4-oxo-6,7,8,9-tetrahydro-7,10-ethanopyrimido[1,2-a]azepin-10(4H)-yl)-N,N-dimethylethanediamide], for which the IC50 is less than 10 nM. `CN(C)C(=O)C(=O)NC12CCC(CC1)Cn1c2nc(C(=O)NCc2ccccc2F)c(O)c1=O` [Example 367]: the IC50 is less than 10 nM. With `Cn1cc(C(=O)NC23CCC(CC2)Cn2c3nc(C(=O)NCc3ccc(F)cc3)c(O)c2=O)nn1` [Example 248, 7,10-Ethanopyrimido[1,2-a]azepine-2-carboxamide, N-[(4-fluorophenyl)methyl]-4,6,7,8,9,10-hexahydro-3-hydroxy-10-[[(1-methyl-1H-1,2,3-triazol-4-yl)carbonyl]amino]-4-oxo-], the IC50 was less than 10 nM. `CN(CCF)C(=O)C(=O)NC12CCC(CCn3c1nc(C(=O)NCc1ccc(F)cc1)c(O)c3=O)C2` (stereo not shown) [Example 209, Ethanediamide, N-(2-fluoroethyl)-N′-[2-[[[(4-fluorophenyl)methyl]amino]carbonyl-7,8,9,10-tetrahydro-3-hydroxy-4-oxo-8,11-methano-4H-pyrimido[1,2-a]azocin-1](6H)-yl]-N-methyl]: the IC50 was less than 10 nM. As for `Cn1cnc(S(=O)(=O)N2CCN(C(=O)C(=O)NC34CCC(CC3)Cn3c4nc(C(=O)NCc4ccc(F)cc4)c(O)c3=O)CC2)c1` [Example 148, N-(4-Fluorobenzyl)-3-hydroxy-10-(((4-((1-methyl-1H-imidazol-4-yl)sulfonyl)-1-piperazinyl)(oxo)acetyl)amino)-4-oxo-4,6,7,8,9,10-hexahydro-7,10-ethanopyrimido[1,2-a]azepine-2-carboxamide], the IC50 is less than 10 nM. Regarding `CN(C)C(=O)C(=O)NC12CCC(CC1)Cn1c2nc(C(=O)NCc2ccc(F)cc2F)c(O)c1=O` [Example 114, N′-(2-((2,4-Difluorobenzyl)carbamoyl)-3-hydroxy-4-oxo-6,7,8,9-tetrahydro-7,10-ethanopyrimido[1,2-a]azepin-10(4H)-yl)-N,N-dimethylethanediamide], the IC50 was less than 10 nM. Next, `CN(C)C(=O)C(=O)NC12CCC(CC1)n1c2nc(C(=O)NCc2ccc(F)cc2)c(O)c1=O` [Example 16, Ethanediamide, N′-[2-[[[(4-fluorophenyl)methyl]amino]carbonyl]-7,8-dihydro-3-hydroxy-4-oxo-6,9-ethano-4H-pyrido[1,2-a]pyrimidin-9(6H)-yl]-N,N-dimethyl-]: less than 10 nM; `CN(C)C(=O)C(=O)NC12CCC(CC1)Cn1c2nc(C(=O)NCCC(C)(C)C)c(O)c1=O` [Example 348]: more than 100 nM; `Cc1ccccc1CNC(=O)c1nc2n(c(=O)c1O)CC1CCC2(NC(=O)C(=O)N(C)C)CC1` [Example 370]: less than 10 nM. For `O=C(NC12CCC(CCn3c1nc(C(=O)NCc1ccc(F)cc1)c(O)c3=O)C2)C(=O)N1CCC(F)CC1` (stereo not shown) [Example 203, 8,1,1-Methano-4H-pyrimido[1,2-a]azocine-2-carboxamide, N-[(4-fluorophenyl)methyl]-11-[[2-(4-fluoro-1-piperidinyl)-1,2-dioxoethyl]amino]-6,7,8,9,10,11-hexahydro-3-hydroxy-4-oxo-], the IC50 was less than 10 nM. With `CC(=O)NC12CCCC(Cn3c1nc(C(=O)NCc1ccc(F)cc1)c(O)c3=O)C2` (stereo not shown) [Example 187, 7,11-Methano-4H-pyrimido[1,2-a]azocine-2-carboxamide, 11-(acetylamino)-N-[(4-fluorophenyl)methyl]-6,7,8,9,10,11-hexahydro-3-hydroxy-4-oxo-], the IC50 was less than 10 nM.
